Data taken from paper PMC8208785, “Therapeutic efficacy of novel memantine nitrate MN‐08 in animal models of Alzheimer’s disease” (Aging Cell, 2021).

Assays:
3×Tg‐AD mice = experiment: Golgi staining of dendritic spines and Western blotting of synaptic markers in 3×Tg-AD mice; type: in vivo
Experimental: Triple transgenic 3×Tg‐AD mice were acquired from Jackson Laboratory and fostered in the Shenzhen Center for Disease Control and Prevention (Shenzhen, China). Eight‐month‐old 3×Tg‐AD mice were categorized into six groups: (1) 3×Tg‐AD +Vehicle group; (2) 3×Tg‐AD +MN‐08 (3 mg/kg) group; (3) 3×Tg‐AD +MN‐08 (6 mg/kg) group; (4) 3×Tg‐AD +MN‐08 (12 mg/kg) group; (5) 3×Tg‐AD +Memantine (Mem, 5 mg/kg) group; (6) 3×Tg‐AD +Donepezil (Done, 1.3 mg/kg, once daily) group; (7) Eight‐month‐old B6129SF2/J mice as a control group. MN‐08 and memantine were given twice daily (Done, once daily) by gastric gavage for 4 months from 8 months of age.
Golgi staining was used to determine hippocampal dendritic spine density by a Rapid Golgi Stain Kit (FD Neurotechnologies, Columbia, MD, USA) according to the manufacturer’s instructions. The brain was removed after the behavioral tests and incubated with impregnation solution in the dark at room temperature for 1 week. Impregnation solution was replaced with solution A and stored in the dark for 3 days. Brain sections (100 μm thickness) were placed on gelatin-coated microscope slides and then immersed in ddH2O. Solution B, Solution C, 80 % ethanol and xylene were used for 10 min, sequentially. The dendritic spines of hippocampal neurons were analyzed and counted in a blinded manner from six sections per animal by light microscopy (Olympus, Tokyo, Japan).
Western blotting analysis was performed as previously described with minor modifications (Huang, Li, & Nan, 2017). Proteins were extracted from hippocampal tissue and their concentrations determined by the BCA protein assay kit (Fdbio science, Hangzhou, China). The protein (20 μg) was separated on a 12% SDS-PAGE gel and then transferred to PVDF membranes. The membranes were blocked using 5 % nonfat dry milk for 2 h. […] Quantitative analysis of protein bands was conducted by the Carestream system (Carestream Health, Inc, USA).

[1] = system: cerebellar granule neurons (CGNs); experiment: Hoechst 33342 staining of apoptotic bodies in glutamate-challenged CGNs; type: cell-based, rat; settings: 24 h glutamate 100 µM
Experimental: (§1) CGNs were prepared from the 8-day-old Sprague–Dawley rats as described in our previous publication (Li et al., 2005). Briefly, animals were anesthetized and sacrificed, and their cerebella were collected. Then, the freshly collected cerebella were rinsed in cold Kreb’s buffer-BSA and digested with 0.025 % trypsin incubated in a 37°C for 15 min. The reaction was stopped, and the single cell suspension was obtained through pipetting up and down the sedimentary tissue. CGNs were seeded in basal modified Eagle’s medium (ThermoFisher Scientific, Waltham, MA, USA) supplemented with 10 % fetal bovine serum, 25 mM KCl, 2 mM glutamine and 100 units/mL penicillin/streptomycin at a density of 1.5×10^6 cells/mL. […]
Chromatin condensation, the apoptotic characteristic feature, was determined by Hoechst 33342 staining as described in previous publications with some modifications (Guo et al., 2017; Jiajia et al., 2017). […] The nuclei were visualized by using a fluorescence Leica TCS SPE confocal (Leica, Wetzlar, Germany) at 200× magnification. In the observation, cells with bright blue fragmented nuclei, which were showing condensation of chromatin, were counted as apoptotic cells. Condensed nuclei were scored by counting at least 500 cells of three randomly chosen fields for each sample in three separated experiments.

[2] = system: ERK and PI3K/Akt/GSK3β pathway; experiment: Western blotting of p-ERK, p-Akt, p-GSK3β and Bcl-2 in glutamate-challenged CGNs; type: cell-based, rat; settings: for upregulation of ERK1/2 phosphorylation induced by glutamate: 2 h pre‐treatment, glutamate 0.5 h
Text: To further characterize the neuroprotection of MN‐08, the level of the key signaling molecules, such as ERK, Akt, and GSK3β, was examined by Western blotting assay. […] Moreover, pre‐treatment with MN‐08 reversed expression of both p‐Akt and p‐GSK3β with the challenge of glutamate. Akt is an important downstream member of PI3K. To further confirm whether the PI3K/Akt pathway was associated with the neuroprotection of MN‐08 against glutamate‐induced excitotoxicity, specific PI3K inhibitor LY294002 was applied and incubated with MN‐08. […] Taken together, MN‐08 might protect against glutamate‐induce cytotoxicity by reversing the dysregulations of ERK pathway and PI3K/Akt/GSK3β pathway.
Western blotting analysis was performed as previously described with minor modifications (Huang, Li, & Nan, 2017). Proteins were extracted from hippocampal tissue and their concentrations determined by the BCA protein assay kit (Fdbio science, Hangzhou, China). The protein (20 μg) was separated on a 12% SDS-PAGE gel and then transferred to PVDF membranes. The membranes were blocked using 5 % nonfat dry milk for 2 h. The protein blots were incubated with the corresponding primary antibodies against p-Akt (#4060, 1:1000, Cell Signaling Technology), Akt (#4685, 1:1000, Cell Signaling Technology), BACE1 (#5606, 1:1000, Cell Signaling Technology), PS1 (#5643, 1:1000, Cell Signaling Technology), p-GSK3β (#5558, 1:1000, Cell Signaling Technology), GSK3β (#12456, 1:1000, Cell Signaling Technology), Bcl-2 (#3498, 1:1000, Cell Signaling Technology), Bax (#5023, 1:1000, Cell Signaling Technology), Cleaved caspase-3 (#9661, 1:1000, Cell Signaling Technology), Caspase-3 (#9662, 1:1000, Cell Signaling Technology), ADAM10 (#14194, 1:1000, Cell Signaling Technology), APP (#ab241592, 1:1000, Abcam), sAPPα (#ab126723, 1:1000, Abcam), NEP (#ab216341, 1:1000, Abcam), Synapsin I (#ab64581, 1:1000, Abcam), Synapsin II (#ab76494, 1:1000, Abcam), NR2A (#ab124913, 1:2000, Abcam), PSD95 (#ab18258, 1:1000, Abcam), Synaptophysin (#ab32127, 1:1000, Abcam), IDE (#ab133561, 1:1000, Abcam), Drebin (#ab178408, 1:1000, Abcam) and Tau-5 (#ab80579, 1:2000, Abcam) overnight at 4°C. After washing 3 times, the membranes were incubated with the respective HRP-conjugated secondary antibody. ECL Western blotting Detection Reagents (Fdbio science, Hangzhou, China) were used to perform Chemiluminescence detection. Quantitative analysis of protein bands was conducted by the Carestream system (Carestream Health, Inc, USA).
as §1, with “cells/mL. Cytosine arabinoside (10 μM) was added to inhibit the growth of non-neuronal cells at 24 h after seeding. All experiments were carried out after 8 days in vitro.” for “cells/mL.”

SMILES | reduction of dendritic spines (hippocampus CA1, Golgi staining) (3×Tg‐AD mice; MN‐08 6 mg/kg) | expression of synaptic markers (SYP, PSD95, SYN I, SYN II, NR2A) (3×Tg‐AD mice; MN‐08 6 mg/kg, Western blot) | numbers of apoptotic bodies ([1]; MN‐08 30 µM) | expression of both p‐Akt and p‐GSK3β with the challenge of glutamate ([2]; MN‐08 30 µM pre‐treatment) | upregulation of ERK1/2 phosphorylation induced by glutamate ([2]; MN‐08 30 µM) | Bcl‐2 downregulation caused by glutamate ([2]; pre‐treatment MN‐08 30 µM) | reduction of dendritic spines (hippocampus CA1, Golgi staining) (3×Tg‐AD mice; memantine 5 mg/kg) | numbers of apoptotic bodies ([1]; memantine 10 µM) | upregulation of ERK1/2 phosphorylation induced by glutamate ([2]; memantine 10 µM)
CCC12CC3CC(N)(C1)CC(CO[N+](=O)[O-])(C3)C2 (stereo not drawn) [MN‐08] | markedly reversed | significantly increased | significantly reduced | reversed | significantly inhibited | significantly reversed | – | – | –
CC12CC3CC(C)(C1)CC(N)(C3)C2 [memantine, 1‐amino‐3,5‐dimethyladamantane] | – | – | – | – | – | – | markedly reversed | significantly reduced | significantly inhibited
